Experimental data as given in US12564580B2, “Mitochondria-targeted isoketal/isolevuglandin scavengers and uses thereof” (Vanderbilt University, priority 2020, dated 2026).

How the values were obtained:
[1] = test system: renal ATP; assay: ATP levels in kidney tissue of angiotensin II-infused mice; format: in vivo, mouse; conditions: Ang II plus mito2HOBA
Experimental: FIGS. 13A-B show mito2HOBA reduces mPTP opening and prevents mitochondrial dysfunc¬tion. C57B1/6J mice were infused with Ang II ([…]) and mito2HOBA in the drinking water (0.1 g/L). Following 14 days of Ang II infusion the animals were sacrificed and kidneys were isolated for mitochondrial studies. Addition of CaCl2 to mitochondria above Ca2+ retention capacity led to mPTP opening and mitochondria swelling. 71 Mitochondria isolated from Ang II-infused mice had significant reduction in Ca2+ capacity due to increased mPTP opening and CypD inhibitor Cyclosporine A (CsA) rescued Ca2+ retention capacity (A). Respiratory control ratio (State 3/State 4) was measured in isolated kidney mitochondria with glutamate and malate (B). Control level is 100%. (C) Renal ATP was measured in freshly isolated tissue by luciferase-based luminescent assay. 72 Results are mean±SEM. *P<0.01 vs Sham, **P<0.01 vs Angiotensin II (n=5).
ATP concentration in the kidney tissue was measured by luminescent ATP detection assay kit (Abcam; Cat #ab113849). Luminescence signals were read using a Biotek Synergy H1 plate reader. Luminescence units were calculated as μmol/mg protein based on the ATP calibration curve and protein concentration measured by the Bradford method.

[2] = test system: kidney mitochondria; assay: Respiration of kidney mitochondria isolated from mito2HOBA and LPS treated mice; format: in vivo, mouse
Experimental: To study the mitochondrial function, the combination of glutamate and malate (GM) or succinate was used as substrates. Since glutamate can be converted via transamination to α-ketoglutarate and further to succinate, the present inventors used complex II inhibitor malonate to define specific complex I respiration. The basal respiration (1) was measured in mitochondria supplemented with respiratory substrates. Then ADP was added to measure the coupled respiration (2). The proton leak (3) was determined after addition of complex V inhibitor oligomycin A. The uncoupled respiration (4) was measured after supplementation with CCCP. Finally, antimycin A plus rotenone were added to assess non-mitochondrial respiration (5) as described previously [32].
In order to define specific alterations in the mitochondrial respiration in LPS model of sepsis and test the potential protection by mito2HOBA the present inventors adopted the Seahorse protocol for mitochondrial studies in the presence of mitochondrial substrates Glutamate+Malate (GM) or succinate. To define the specific role of complex I mediated respiration the present inventors performed measurements in the presence of complex II inhibitor malonate (5 mM). The present inventors measured basal respiration in the presence of mitochondria plus substrates, coupled respiration after addition of ADP (2 mM), proton leak following addition of oligomycin A (2.5 μM) uncoupled respiration after supplementation of CCCP (1 μM) and non-mitochondrial respiration with mixture of antimycin A and rotenone (1 μM) Mitochondrial studies where independently verified in two labs using Oroboros O2k high-resolution respirometry and Fluorescence Lifetime Micro Oxygen Monitoring System (Instech Laboratories, Inc). Kidney mitochondria were isolated from control sham mice, LPS-injected mice (25 μg/g, 16 hours post-injection), mito2HOBA supplemented mice (0.1 g/Liter drinking water, 4 days), or mito2HOBA plus LPS (0.1 g/Liter mito2HOBA for 3 days plus LPS injection).

[3] = test system: aortic superoxide; assay: Aortic superoxide by HPLC (mitoSOX, DHE) in angiotensin II-infused mice; format: in vivo, mouse
Experimental: (§1) FIGS. 12A-D show the effect of mito2HOBA supplementation on mitochondrial superoxide (A), vascular superoxide (B), endothelial nitric oxide (C) and endothelial-dependent relaxation (D) in angiotensin II-infused mice. Mitochondrial and vascular O2⋅ was measured by mitochondria-targeted superoxide probe mitoSOX (1 μM) or untargeted superoxide probe DHE (50 μM) using HPLC.46 Endothelial nitric oxide was analyzed by NO spin trap Fe(DETC)2 and ESR.47 C57B1/6J mice were infused with Ang II and mito2HOBA was provided in the drinking water (0.1 g/L). […] Results are mean±SEM. *P<0.01 vs Sham, **P<0.01 vs Ang II (n=6).
Mouse aortic segments were loaded with DHE (50 μM) or mitochondria-targeted mitoSOX (1 μM) in KHB buffer by 30-minute incubation in a tissue culture incubator at 37° C. […] The tissue homogenate was passed through a 0.22 μm syringe filter and methanol filtrates were analyzed by HPLC according to previously published protocols. The superoxide specific product 2-hydroxyethidium was detected using a C-18 reverse-phase column (Nucleosil 250 to 4.5 mm) and a mobile phase containing 0.1% trifluoroacetic acid and an acetonitrile gradient (from 37% to 47%) at a flow rate of 0.5 ml/min. 2-Hydroxyethidium was quantified by fluorescence detector using an emission wavelength of 580 nm and an excitation of 480 nm as described previously.

[4] = test system: endothelial nitric oxide; assay: Aortic nitric oxide by ESR and Fe(DETC)2 in angiotensin II-infused mice; format: in vivo, mouse; conditions: Ang II plus mito2HOBA
Experimental: as §1
Nitric oxide production in aortas was quantified by ESR and colloid Fe(DETC)2 as we have described previously. All ESR samples were placed in quartz Dewar (Corning, New York, NY) filled with liquid nitrogen. ESR spectra were recorded using an EMX ESR spectrometer (Bruker Biospin Corp., Billerica, MA) and a super high Q microwave cavity. The ESR settings were as follows: field sweep, 160 Gauss; microwave frequency, 9.42 GHz; microwave power, 10 milliwatts; modulation amplitude, 3 Gauss; scan time, […]; time constant, 5.2 sec; and receiver gain, 60 dB (n=4 scans).

[5] = test system: mouse aortic rings; assay: Vasodilatation study of aortic rings (endothelial-dependent relaxation); format: in vivo; conditions: Ang II plus mito2HOBA
Experimental: as §1
Isometric tension studies were performed on 2 mm mouse aortic rings dissected free of perivascular fat from C57B/6J mice. Studies were performed in a horizontal wire myograph (DMT, Aarhus, Denmark, models 610 M and 620 M) containing physiological salt solution with the composition of 130 mM NaCl, 4.7 mM KCl 1.2 mM MgSO4, 1.2 mM KH2PO4, 15 mM NaHCO3, 5.5 mM glucose, and 1.6 mM CaCl2. The isometric tone of each vessel was recorded using LabChart Pro v7.3.7 (AD Instruments, Australia). […] Once the vessels reach a steady state contraction, increasing concentrations of acetylcholine were administered, and the response to each concentration of drug was recorded.

[6] = test system: human aortic endothelial cells (HAEC); assay: Cardiolipin oxidation in human aortic endothelial cells stimulated with angiotensin II plus TNFα (LC/MS); format: cell-based; conditions: 50 nM
Experimental: (§2) FIGS. 9A and B show the effect of mito2HOBA on mitochondrial superoxide and cardiolipin oxidation in human aortic endothelial cells induced by angiotensin II plus TNFα. (A) Mitochondrial superoxide was measured by HPLC analysis of mitoSOX-superoxide specific product, mito-2-hydroxyethidium (Mito-2OH-Et+). […] (B) Cardiolipin oxidation induced by Angiotensin II+TNFα measured my LC/MS. […] Data are mean±SEM. *P<0.01 vs Control, **P<0.01 vs Angiotensin II+TNFα (n=4).
Cardiolipin oxidation in human aortic endothelial cells was measured by Liquid Chromatography-Mass Spectrometry (LC/MS) as described previously.^44 The extracted lipid fraction was separated online by UPLC using a Waters Acquity UPLC system (Waters Corp., Milford, MA). Mass Spectrometry analysis was performed on a Thermo Quantum Ultra triple quadrupole mass spectrometer (Thermo Scientific Inc., San Jose, CA, USA).
(§3) Human aortic endothelial cells (HAEC) were purchased from Lonza (Chicago, IL) and cultured in EGM-2 medium supplemented with 2% FBS but without antibiotics. On the day before the study, the FBS concentration was reduced to 1%.

[7] = test system: human aortic endothelial cells (HAEC); assay: Mitochondrial superoxide in human aortic endothelial cells stimulated with angiotensin II plus TNFα (mitoSOX HPLC); format: cell-based; conditions: 50 nM, angiotensin II plus TNFα for 4-hours
Experimental: as §2, §3
We tested if mito2HOBA reduces mitochondrial oxidative stress in human aortic endothelial cells (HAEC) stimulated with angiotensin II plus TNFα for 4-hours (FIG. 9). Indeed, supplementation of HAEC with mito2HOBA (50 nM) reduced mitochondrial superoxide production stimulated by TNF[…] and Ang II as measured by accumulation of specific superoxide-MitoSOX product, 2-OH-Mito-Ethidium.

[8] = LPS 25 μg/g plus mito2HOBA 0.1 g/L
[9] = mito2HOBA alone, 0.1 g/L drinking water, 4 days

NCc1ccc(OCCCC[P+](c2ccccc2)(c2ccccc2)c2ccccc2)cc1O [mito2HOBA]
decrease in renal ATP levels [1]: prevented
LPS-induced impairment of GM-mediated respiration [2, 8]: significantly protected
LPS-induced impairment of complex I-specific oxygen consumption in the presence of GM+malonate [2, 8]: significantly protected
mitochondrial protein leak [2, 8]: did not affect
succinate mediated respiration [2, 8]: did not affect
complex I-specific oxygen consumption in the presence of GM+malonate [2, 9]: improved
succinate-driven respiration [2, 9]: slightly reduced
aortic cellular superoxide ([3]; DHE, % compared to Sham control, Ang II plus mito2HOBA (Ang II alone 217%)): 152%
increase in aortic mitochondrial superoxide ([3]; mitoSOX, Ang II plus mito2HOBA): completely prevented
endothelial nitric oxide [4]: completely prevented the decline
endothelial-dependent relaxation [5]: preserved
cardiolipin oxidation [6]: inhibited
mitochondrial superoxide production [7]: reduced
